Key:
[1] = tested on: Monographella nivalis (Microdochium nivale); experiment: Monographella nivalis (Microdochium nivale) / liquid culture (foot rot cereals); type: cell-based; conditions: PDB potato dextrose broth, 24° C., 4-5 days after application, read-out: control of Monographella nivalis (inhibition of growth, photometric)
Summary of the method: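 Cryostored M. nivalis conidia mixed into potato dextrose broth and added to 96-well plates holding test compound in DMSO. Incubated at 24° C; growth inhibition read photometrically 4-5 days after application.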

[2] = tested on: Magnaporthe grisea (Pyricularia oryzae); experiment: whole plant or invertebrate; type: in vivo; conditions: foliar, read-out: control of Magnaporthe grisea (percent disease control compared to untreated)
[3] = tested on: Mycosphaerella graminicola (Septoria tritici); experiment: Mycosphaerella graminicola (Septoria tritici) / liquid culture (Septoria blotch); type: cell-based; conditions: Zymoseptoria tritici, PDB potato dextrose broth, 24° C., 4-5 days after application, read-out: control of Mycosphaerella graminicola (inhibition of growth, photometric)
Summary of the method: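 Conidia from cryogenic storage were mixed into potato dextrose broth and added to test compound in DMSO. Plates were incubated at 24° C, and growth inhibition was read photometrically 4-5 days after application.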

Alternaria solani = Alternaria solani / tomato / leaf disc (early blight); type: in vivo; conditions: foliar, tomato leaf disks cv. Baby, inoculated 2 days after application, assessed 5-7 days after application, read-out: control of Alternaria solani (percent disease control compared to untreated)
Description: Example B1: Alternaria solani/Tomato/Leaf Disc (Early Blight) Tomato leaf disks cv. Baby are placed on agar in multiwell plates (24-well format) and sprayed with the formulated test compound diluted in water. The leaf disks are inoculated with a spore suspension of the fungus 2 days after application. The inoculated leaf disks are incubated at 23° C./21° C. […] […]-185.

Pyrenophora teres = Pyrenophora teres / barley / leaf disc preventative (net blotch); type: in vivo; conditions: foliar, barley leaf segments cv. Hasso, inoculated 2 days after application, assessed 5-7 days after application, read-out: control of Pyrenophora teres (disease control compared to untreated)
Summary of the method: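 Barley cv. Hasso leaf discs on agar were sprayed with diluted formulated compound, then inoculated with spore suspension 2 days later. Incubation at 20 °C, 65% rh, 12 h light/dark; disease control versus untreated assessed 5-7 days after application.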

Sclerotinia sclerotiorum = Sclerotinia sclerotiorum / liquid culture (cottony rot); type: cell-based; conditions: PDB potato dextrose broth, mycelia fragments, 24° C., 3-4 days after application, read-out: control of Sclerotinia sclerotiorum (inhibition of growth, photometric)
Description: Example B14: Sclerotinia sclerotiorum/Liquid Culture (Cottony Rot) Mycelia fragments of a newly grown liquid culture of the fungus are directly mixed into nutrient broth (PDB potato dextrose broth). After placing a (DMSO) solution of test compound into a microtiter plate (96-well format) the nutrient broth containing the fungal material is added. The test plates are incubated at 24° C. and the inhibition of growth is determined photometrically 3-4 days after application.

[4] = tested on: Blumeria graminis f. sp. tritici (Erysiphe graminis f. sp. tritici); experiment: Blumeria graminis f. sp. tritici / wheat / leaf disc preventative (powdery mildew on wheat); type: in vivo; conditions: foliar, wheat leaf segments cv. Kanzler, inoculated 1 day after application, assessed 6-8 days after application, read-out: control of Blumeria graminis f. sp. tritici (percent disease control compared to untreated)
Text: Example B4: Blumeria graminis f. sp. tritici (Erysiphe graminis f. sp. tritici)/Wheat/Leaf Disc Preventative (Powdery Mildew on Wheat) Wheat leaf segments cv. Kanzler are placed on agar in a multiwell plate (24-well format) and sprayed with the formulated test compound diluted in water. The leaf disks are inoculated by shaking powdery mildew infected plants above the test plates 1 day after application. […] […]-192.

[5] = tested on: Glomerella lagenarium (Colletotrichum lagenarium); experiment: Glomerella lagenarium (Colletotrichum lagenarium) / liquid culture (anthracnose); type: cell-based; conditions: Colletotrichum orbiculare, PDB potato dextrose broth, 24° C., 3-4 days after application, read-out: control of Glomerella lagenarium (inhibition of growth, photometric)
Summary of the method: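 Conidia from cryogenic storage suspended in potato dextrose broth and added to DMSO compound solution in plates. Incubated at 24° C; growth inhibition read photometrically 3-4 days after application.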

[6] = tested on: Mycosphaerella arachidis (Cercospora arachidicola); experiment: Mycosphaerella arachidis (Cercospora arachidicola) / liquid culture (early leaf spot); type: cell-based; conditions: PDB potato dextrose broth, 24° C., 4-5 days after application, read-out: control of Mycosphaerella arachidis (inhibition of growth, photometric)
Description: Example B8: Mycosphaerella arachidis (Cercospora arachidicola)/Liquid Culture (Early Leaf Spot) Conidia of the fungus from cryogenic storage are directly mixed into nutrient broth (PDB potato dextrose broth). After placing a (DMSO) solution of test compound into a microtiter plate (96-well format), the nutrient broth containing the fungal spores is added. The test plates are incubated at 24° C. and the inhibition of growth is determined photometrically 4-5 days after application. […] […]-180.

[7] = tested on: Puccinia recondita f. sp. tritici; experiment: Puccinia recondita f. sp. tritici / wheat / leaf disc preventative (brown rust); type: in vivo; conditions: foliar, wheat leaf segments cv. Kanzler, inoculated 1 day after application, assessed 7-9 days after application, read-out: control of Puccinia recondita f. sp. tritici, preventative (percent disease control compared to untreated)
Summary of the method: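 Wheat leaf segments (cv. Kanzler) on agar were sprayed with formulated compound, then inoculated with spores 1 day later. Segments were incubated at 19 °C, 75% rh with 12 h light/dark. Percent disease control versus untreated was scored 7–9 days after application.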

[8] = tested on: Botryotinia fuckeliana (Botrytis cinerea); experiment: Botryotinia fuckeliana (Botrytis cinerea) / liquid culture (gray mould); type: cell-based; conditions: Vogels broth, 24° C., 3-4 days after application, read-out: control of Botryotinia fuckeliana (inhibition of growth, photometric)
Description: Example B2: Botryotinia fuckeliana (Botrytis cinerea)/Liquid Culture (Gray Mould) Conidia of the fungus from cryogenic storage are directly mixed into nutrient broth (Vogels broth). After placing a (DMSO) solution of test compound into a microtiter plate (96-well format), the nutrient broth containing the fungal spores is added. The test plates are incubated at 24° C. and the inhibition of growth is determined photometrically 3-4 days after application. […] […]-190.

[9] = tested on: Phaeosphaeria nodorum (Septoria nodorum); experiment: Phaeosphaeria nodorum (Septoria nodorum) / wheat / leaf disc preventative (glume blotch); type: in vivo; conditions: Parastagonospora nodorum, foliar, wheat leaf segments cv. Kanzler, inoculated 2 days after application, assessed 5-7 days after application, read-out: control of Phaeosphaeria nodorum (percent disease control compared to untreated)
Summary of the method: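 Wheat cv. Kanzler leaf discs on agar were sprayed with formulated compound diluted in water and inoculated with spores 2 days later. Discs were kept at 20° C, 75% rh, 12 h light/dark; percent disease control versus untreated was scored 5-7 days after application.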

COc1cnc(Nc2cc(F)cc(F)c2)nc1C(=O)NC1CCC1(C)C (centres unmarked) [Compound P-10, 2-(3,5-difluoroanilino)-N-(2,2-dimethylcyclobutyl)-5-methoxy-pyrimidine-4-carboxamide]
≥ 80%: inhibition at 20 ppm [1] | pest or weed control at 200 ppm [2] | inhibition at 20 ppm [3] | pest or weed control at 200 ppm (Alternaria solani) | pest or weed control at 200 ppm (Pyrenophora teres) | inhibition at 20 ppm (Sclerotinia sclerotiorum) | pest or weed control at 200 ppm [4] | inhibition at 20 ppm [5]

CC1(C)CCC1NC(=O)c1nc(Nc2cnsc2)ccc1O (centres unmarked) [Compound P-19, N-(2,2-dimethylcyclobutyl)-3-hydroxy-6-(isothiazol-4-ylamino)pyridine-2-carboxamide]
≥ 80%: inhibition at 20 ppm [1] | inhibition at 20 ppm [3] | inhibition at 20 ppm [6] | inhibition at 20 ppm (Sclerotinia sclerotiorum) | inhibition at 20 ppm [5]

COc1ccc(Nc2cc(F)cc(F)c2)nc1C(=O)NCC1(C)CCOC2(CCC2)C1 (centres unmarked) [Compound P-67, 6-(3,5-difluoroanilino)-3-methoxy-N-[(8-methyl-5-oxaspiro[3.5]nonan-8-yl)methyl]pyridine-2-carboxamide]
≥ 80%: inhibition at 20 ppm [1] | pest or weed control at 200 ppm [2] | inhibition at 20 ppm [3] | inhibition at 20 ppm [6] | pest or weed control at 200 ppm (Alternaria solani) | inhibition at 20 ppm (Sclerotinia sclerotiorum) | pest or weed control at 200 ppm [4] | inhibition at 20 ppm [5]

COc1ccc(Nc2cc(F)cc(F)c2)nc1C(=O)NCCc1ccc(OC(F)(F)F)cc1 [Compound P-74, 6-(3,5-difluoroanilino)-3-methoxy-N-[2-[4-(trifluoromethoxy)phenyl]ethyl]pyridine-2-carboxamide]
≥ 80%: inhibition at 20 ppm [1] | pest or weed control at 200 ppm [2] | inhibition at 20 ppm [3] | inhibition at 20 ppm [6] | pest or weed control at 200 ppm (Alternaria solani) | inhibition at 20 ppm (Sclerotinia sclerotiorum) | pest or weed control at 200 ppm [4] | inhibition at 20 ppm [5]

COc1ccc(Nc2cc(F)cc(F)c2)nc1C(=O)NC1(C)CCOC1 (centres unmarked) [Compound P-122, 6-(3,5-difluoroanilino)-3-methoxy-N-(3-methyltetrahydrofuran-3-yl)pyridine-2-carboxamide]
≥ 80%: inhibition at 20 ppm [1] | pest or weed control at 200 ppm [2] | inhibition at 20 ppm [3] | inhibition at 20 ppm (Sclerotinia sclerotiorum) | pest or weed control at 200 ppm [4] | inhibition at 20 ppm [5]

COc1ccc(Nc2cc(F)cc(F)c2)nc1C(=O)NC1(C#N)CCCC1 [Compound P-123, N-(1-cyanocyclopentyl)-6-(3,5-difluoroanilino)-3-methoxy-pyridine-2-carboxamide]
≥ 80%: pest or weed control at 200 ppm [7] | inhibition at 20 ppm [1] | pest or weed control at 200 ppm [2] | inhibition at 20 ppm [3] | inhibition at 20 ppm (Sclerotinia sclerotiorum) | pest or weed control at 200 ppm [4] | inhibition at 20 ppm [5]

COc1ccc(Nc2cc(F)cc(C#N)c2)nc1C(=O)NC(C)(C)C [Compound P-147, N-tert-butyl-6-(3-cyano-5-fluoro-anilino)-3-methoxy-pyridine-2-carboxamide]
≥ 80%: pest or weed control at 200 ppm [7] | inhibition at 20 ppm [1] | pest or weed control at 200 ppm [2] | inhibition at 20 ppm [3] | pest or weed control at 200 ppm (Alternaria solani) | pest or weed control at 200 ppm (Pyrenophora teres) | inhibition at 20 ppm (Sclerotinia sclerotiorum) | pest or weed control at 200 ppm [4] | inhibition at 20 ppm [5]

COc1ccc(Nc2ccc3occc3c2)nc1C(=O)NC(C)(C)C [Compound P-157, 6-(benzofuran-5-ylamino)-N-tert-butyl-3-methoxy-pyridine-2-carboxamide]
≥ 80%: inhibition at 20 ppm [1] | inhibition at 20 ppm [3] | inhibition at 20 ppm (Sclerotinia sclerotiorum) | inhibition at 20 ppm [5]

COc1ccc(Nc2cc(F)cc(F)c2)nc1C(=O)NC(C)(C)C(C)(C)C [Compound P-171, 6-(3,5-difluoroanilino)-3-methoxy-N-(1,1,2,2-tetramethylpropyl)pyridine-2-carboxamide]
≥ 80%: pest or weed control at 200 ppm [7] | inhibition at 20 ppm [1] | inhibition at 20 ppm [3] | inhibition at 20 ppm [6] | pest or weed control at 200 ppm (Alternaria solani) | inhibition at 20 ppm [8] | pest or weed control at 200 ppm (Pyrenophora teres) | pest or weed control at 200 ppm [9] | pest or weed control at 200 ppm [4] | inhibition at 20 ppm [5]

COc1ccc(Nc2cc(F)cc(F)c2)nc1C(=O)NC(C)(C)C(C)C [Compound P-172, 6-(3,5-difluoroanilino)-3-methoxy-N-(1,1,2-trimethylpropyl)pyridine-2-carboxamide]
≥ 80%: pest or weed control at 200 ppm [7] | inhibition at 20 ppm [1] | inhibition at 20 ppm [3] | inhibition at 20 ppm [6] | pest or weed control at 200 ppm (Alternaria solani) | inhibition at 20 ppm [8] | pest or weed control at 200 ppm [9] | pest or weed control at 200 ppm [4] | inhibition at 20 ppm [5]
